Measurements as given in US20190328706A1, “COMPOSITIONS COMPRISING AN INTEGRIN INHIBITOR AND AGENTS WHICH INTERACT WITH A CHEMOKINE AND METHODS OF USE THEREOF” (Saint Louis University, priority 2016, published 2019).
Like-named read-outs stand apart in the source and are kept apart here. Blank lines part the entries; values can stand above or below the molecule they belong to.

How the values were obtained:
[1] = tested on: human G2 acute lymphoblastic leukemia (ALL) cells; assay: Flow cytometry cell-based assay: inhibition of soluble VCAM-1 binding to G2 ALL cells
Method: (§1) Compounds were tested for their ability to inhibit the binding of soluble VCAM-1 to human G2 acute lymphoblastic leukemia (ALL) cells. Briefly, G2 ALL cells are pre-incubated with increasing concentrations (0.001 to 1000 nM) of compounds for 30 minutes. Soluble VCAM/Fc chimera protein (R&D systems) is then added to the mixture and the cells incubated for an additional 30 minutes. Afterwards, cells are washed and VCAM-1 is detected using PE-conjugated secondary mAbs. In each experiment, an aliquot of cells will be stained with isotype control mAbs to serve as a negative control. The percentage of VCAM-1 binding cells was then determined by flow cytometry.
as §1, with “(ALL) cells or 5TGMI myeloma” for “(ALL)”, “ALL or 5TGMI” for “ALL”

[2] = tested on: murine HSPCs; assay: Colony forming cell (CFC/CFU) assay of mobilized peripheral blood, DBA/2 mice; assay type: in vivo; conditions: for amount of CFU-C cells mobilized in combination with Groβt versus inhibitor alone: DBA/2J mice, FIG. 16
Method: The VLA-4 inhibitors Examples 1220, 1221, 1224, 1610, and 1611 were prepared in DMSO/10 mM sodium bicarbonate pH 8/saline (1%/49.5%/49.5%) and injected subcutaneously (SC) at a dose of 3 mg/kg.
(§2) Peripheral blood (PB) was drawn from the facial vein without anaesthesia into K/EDTA anti-coagulated tubes (Sarstedt AG & Co, Numbrecht, Germany). Red blood cells were removed from 25 L aliquots of blood using hypotonic lysis (Ammonium-Chloride-Potassium, ACK buffer, 5-10 min at RT) and samples were mixed with 2.5 mL methylcellulose media supplemented with a cocktail of recombinant cytokines (MethoCult 3434; Stem Cell Technologies, Vancouver, BC, Canada). Cultures were plated in duplicate in 35 mm dishes and placed in a humidified chamber with 5% CO2 at 37° C. After 7 d of culture, colonies containing at least 50 cells were counted using an inverted microscope in a blinded fashion.
(§3) Recombinant human CXCL2 (Groβt; R&D systems) was reconstituted in sterile Ca^+2/Mg^+2-free phosphate buffered saline (PBS) and injected subcutaneously (SC) at a dose of 2.5 mg/kg. Firategrast (U.S. Patent Application No. 2014/051655) was dissolved in Ca^+2/Mg^+2-free PBS plus 1% ethanol and injected intravenously at a dose of 100 mg/kg. RhG-CSF (Neupogen®, Filgrastim, Amgen, Thousand Oaks, Calif., USA) diluted in PBS was injected i.p. every 12 hrs at a dose of 100 μg/kg for a total of 9 (day 5) doses.
as §2, with “Co, Nimbrecht,” for “Co, Numbrecht,”, “25 μL” for “25 L”
as §3, with “(published structure: C27H27F2NO6; U.S.” for “(U.S.”

[3] = tested on: LSK cells; assay: Flow cytometric enumeration of mobilized LSK cells, DBA/2J mice; assay type: in vivo; conditions: for LSK cell mobilization compared with firategrast: FIG. 17
Method: Peripheral blood (PB) was drawn from the facial vein without anaesthesia into K/EDTA anti-coagulated tubes (Sarstedt AG & Co, Nimbrecht, Germany). Cell counts (WBC) were determined using an automatic hemocytometer (Hemavet 950, Drew Scientific, Dallas, Tex.). Red blood cells were removed from 25 μL aliquots of blood using hypotonic lysis (Ammonium-Chloride-Potassium, ACK buffer, 5-10 min at RT). Samples were resuspended in staining buffer (PBS supplemented with 0.5% bovine serum albumin and 2 mM EDTA) and incubated for 30 min at 4° C. with pre-titrated saturating dilutions of the following fluorochrome-labeled monoclonal antibodies (BD Biosciences, San Jose, Calif.; clone designated in parenthesis): Sca1-PE (D7), CD117-BV421 (ACK2), lineage-APC (17A2, RB6-8C5, RA3-6B2, Ter-119, M/170) and CD45-A700 (30-F11). Dead cells were excluded from these assays by staining with 2 μg/mL 7-amino-actinomycin D (Molecular Probes, Eugene, Oreg.) for 5 min prior to analysis. Appropriate isotype-matched negative controls were used to assess background fluorescence intensity. Samples were analyzed on a Beckman Coulter Gallios flow cytometer and data were analyzed using FlowJo software (TreeStar, Ashland, Oreg.). Absolute numbers of immunophenotypically defined populations (e.g. LSK) were calculated by identifying CD45 positive cells as WBC from the corresponding cell count analysis. Statistical comparisons of flow cytometry data were performed using an unpaired two-tailed Student t-test (GraphPad Prism). P-values ≤0.05 were considered significant.

[4] = Table 12; inhibition of sVCAM-1 binding to human G2 ALL cells; read-out: sVCAM-1 IC50
[5] = Table 10; inhibition of sVCAM-1 binding to human G2 ALL cells; read-out: sVCAM-1 IC50
[6] = flow cytometry, FIG. 5, 8, 9, 12
[7] = Table 8; inhibition of sVCAM-1 binding to human G2 ALL cells; read-out: sVCAM-1 IC50
[8] = flow cytometry, FIG. 6, 7, 10, 11

IC50 [1, 4]: 3.33 nM
Structure (SMILES): CCOCc1cc(OC)c(-c2ccc(C[C@H](NC(=O)c3c(Cl)cccc3Cl)C(=O)O)cc2C(C)O)c(OC)c1 (stereo partly drawn) [Cmpd 12, (2S)-2-(2,6-dichlorobenzamido)-3-(4′-(ethoxymethyl)-2-(1-hydroxyethyl)-2′,6′-dimethoxy-[1,1′-biphenyl]-4-yl)propanoic acid]
amount of CFU-C cells mobilized in combination with Groβt versus inhibitor alone [2]: nearly doubled

IC50 [1, 4]: 0.83 nM
Structure (SMILES): CCOCc1cc(OC)c(-c2ccc(C[C@H](NC(=O)[C@@H]3CCCN3S(=O)(=O)c3ccccc3)C(=O)O)cc2)c(OC)c1 [Cmpd 35, (S)-3-(4′-(ethoxymethyl)-2′,6′-dimethoxy-[1,1′-biphenyl]-4-yl)-2-((S)-1-(phenylsulfonyl)pyrrolidine-2-carboxamido)propanoic acid]
amount of CFU-C cells mobilized in combination with Groβt versus inhibitor alone [2]: nearly doubled

Structure (SMILES): CCOCc1cc(OC)c(-c2ccc(C[C@H](NC(=O)[C@@H]3CCCN3S(=O)(=O)c3cc(Cl)cc(Cl)c3)C(=O)O)cc2)c(OC)c1 [Cmpd 36, (S)-2-((S)-1-((3,5-dichlorophenyl)sulfonyl)pyrrolidine-2-carboxamido)-3-(4′-(ethoxymethyl)-2′,6′-dimethoxy-[1,1′-biphenyl]-4-yl)propanoic acid]
IC50 ([1]; read-out: sVCAM-1 IC50; Table 12; inhibition of sVCAM-1 binding to human G2 ALL cells): 0.49 nM | amount of CFU-C cells mobilized in combination with Groβt versus inhibitor alone [2]: nearly doubled

IC50 [1, 5]: 0.6 nM
Structure (SMILES): COc1cccc(OC)c1-c1ccc(C[C@H](NC(=O)[C@]2(C)CCCN2S(=O)(=O)c2cc(Cl)cc(Cl)c2)C(=O)O)cc1 [Compound 824]
inhibition of sVCAM-1 binding compared with Firategrast [1, 6]: significantly more potent | LSK cell mobilization compared with firategrast [3]: greater extent than firategrast

IC50 [1, 5]: 0.4 nM
Structure (SMILES): COc1cc(CC(=O)N[C@@H](CC(C)C)c2cc(CCC(=O)O)on2)ccc1NC(=O)Nc1ccccc1C [Compound 842]
inhibition of sVCAM-1 binding compared with Firategrast [1, 6]: significantly more potent | CFU-C mobilization, VLA4 blockade combined with CXCR2 stimulation ([2]; DBA2/J mice, FIG. 15/29): mobilized | LSK mobilization, VLA4 blockade combined with CXCR2 stimulation ([3]; DBA2/J mice, FIG. 15/29): mobilized

IC50 [1, 7]: 11.7 nM
Structure (SMILES): CCOCc1cc(OC)c(-c2ccc(C[C@H](NC(=O)[C@]3(C)CCCN3S(=O)(=O)c3ccccc3)C(=O)O)cc2)c(OC)c1 [Compound 1609, (S)-3-(4′-(ethoxymethyl)-2′,6′-dimethoxy-[1,1′-biphenyl]-4-yl)-2-((S)-2-methyl-1-(phenylsulfonyl)pyrrolidine-2-carboxamido)propanoic acid]
inhibition of sVCAM-1 binding compared with Firategrast [1, 6]: significantly more potent than Firategrast

IC50 [1, 5]: 10 nM
Structure (SMILES): COc1cccc(OC)c1-c1ccc(C[C@H](NC(=O)c2c(Cl)cccc2Cl)C(=O)O)cc1C(C)O (stereo partly drawn) [Compound 1632]
inhibition of sVCAM-1 binding compared with Firategrast [1, 6]: significantly more potent than Firategrast

IC50 [1, 7]: 3.33 nM
Structure (SMILES): CCOCc1cc(OC)c(-c2ccc(C[C@H](NC(=O)c3c(Cl)cccc3Cl)C(=O)O)cc2C(C)O)c(OC)c1 (stereo partly drawn) [Compound 1633, (2S)-2-(2,6-dichlorobenzamido)-3-(4′-(ethoxymethyl)-2-(1-hydroxyethyl)-2′,6′-dimethoxy-[1,1′-biphenyl]-4-yl)propanoic acid]
inhibition of sVCAM-1 binding compared with Firategrast [1, 6]: significantly more potent than Firategrast | LSK cell mobilization compared with firategrast [3]: greater extent than firategrast

IC50 [1, 7]: 3.7 nM
Structure (SMILES): COCCOCc1cc(OC)c(-c2ccc(C[C@H](NC(=O)[C@@H]3CCN3S(=O)(=O)c3ccccc3)C(=O)O)cc2)c(OC)c1 [Compound 1745, (S)-3-(2′,6′-dimethoxy-4′-((2-methoxyethoxy)methyl)-[1,1′-biphenyl]-4-yl)-2-((S)-1-(phenylsulfonyl)azetidine-2-carboxamido)propanoic acid]

IC50 [1, 7]: 3.79 nM
Structure (SMILES): COCCOCc1cc(OC)c(-c2ccc(C[C@H](NC(=O)[C@@H]3CCN3S(=O)(=O)c3cc(Cl)cc(Cl)c3)C(=O)O)cc2)c(OC)c1 [Compound 1746, (S)-2-((S)-1-((3,5-dichlorophenyl)sulfonyl)azetidine-2-carboxamido)-3-(2′,6′-dimethoxy-4′-((2-methoxyethoxy)methyl)-[1,1′-biphenyl]-4-yl)propanoic acid]
inhibition of sVCAM-1 binding compared with other inhibitors [1, 8]: inhibition was greatest

IC50 [1, 7]: 7.58 nM
Structure (SMILES): COCCOCc1cc(OC)c(-c2ccc(C[C@H](NC(=O)[C@@H]3CCCN3S(=O)(=O)c3ccc(C(=O)O)cc3)C(=O)O)cc2)c(OC)c1 [Compound 1747, 4-(((S)-2-(((S)-1-carboxy-2-(2′,6′-dimethoxy-4′-((2-methoxyethoxy)methyl)-[1,1′-biphenyl]-4-yl)ethyl)carbamoyl)pyrrolidin-1-yl)sulfonyl)benzoic acid]

IC50 [1, 7]: 2.06 nM
Structure (SMILES): COCCOCCOCCOCc1cc(OC)c(-c2ccc(C[C@H](NC(=O)[C@@H]3CCN3S(=O)(=O)c3ccccc3)C(=O)O)cc2)c(OC)c1 [Compound 2087, (S)-3-(4′-(2,5,8,11-tetraoxadodecyl)-2′,6′-dimethoxy-[1,1′-biphenyl]-4-yl)-2-((S)-1-(phenylsulfonyl)azetidine-2-carboxamido)propanoic acid]

IC50 [1, 7]: 0.7 nM
Structure (SMILES): COCCOCCOCCOCc1cc(OC)c(-c2ccc(C[C@H](NC(=O)[C@@H]3CCN3S(=O)(=O)c3cc(Cl)cc(Cl)c3)C(=O)O)cc2)c(OC)c1 [Compound 2088, (S)-3-(4′-(2,5,8,11-tetraoxadodecyl)-2′,6′-dimethoxy-[1,1′-biphenyl]-4-yl)-2-((S)-1-((3,5-dichlorophenyl)sulfonyl)azetidine-2-carboxamido)propanoic acid]
inhibition of sVCAM-1 binding compared with other inhibitors [1, 8]: inhibition was greatest
